The results in this text go back to ChEMBL document CHEMBL5653615 (J Biol Chem, 2013).

Assay [1] deals with Vascular endothelial growth factor receptor 1 (Homo sapiens) (UniProt P17948). Briefly: Inhibition of human FLT1 at 500 nM by HotSpot assay relative to control.
Assay [2] deals with T1, Serine/threonine-protein kinase VRK1 (Homo sapiens) (UniProt Q99986).
T1 sequence (whole entry): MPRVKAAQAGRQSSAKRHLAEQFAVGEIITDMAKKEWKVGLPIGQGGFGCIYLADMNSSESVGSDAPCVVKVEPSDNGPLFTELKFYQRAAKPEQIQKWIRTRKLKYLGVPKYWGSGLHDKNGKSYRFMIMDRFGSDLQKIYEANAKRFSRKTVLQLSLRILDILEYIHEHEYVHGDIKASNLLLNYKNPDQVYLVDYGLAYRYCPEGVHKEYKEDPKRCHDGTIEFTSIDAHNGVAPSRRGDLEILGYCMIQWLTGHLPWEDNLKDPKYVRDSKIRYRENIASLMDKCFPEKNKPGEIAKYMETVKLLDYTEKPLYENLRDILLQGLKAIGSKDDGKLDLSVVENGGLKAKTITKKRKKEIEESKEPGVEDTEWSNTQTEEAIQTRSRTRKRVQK
The assay is described as follows: Inhibition of human VRK1 at 500 nM by HotSpot assay relative to control.

Assay [3] deals with T2, Calcium/calmodulin-dependent protein kinase type IV (Homo sapiens) (UniProt Q16566).
T2 sequence (whole entry): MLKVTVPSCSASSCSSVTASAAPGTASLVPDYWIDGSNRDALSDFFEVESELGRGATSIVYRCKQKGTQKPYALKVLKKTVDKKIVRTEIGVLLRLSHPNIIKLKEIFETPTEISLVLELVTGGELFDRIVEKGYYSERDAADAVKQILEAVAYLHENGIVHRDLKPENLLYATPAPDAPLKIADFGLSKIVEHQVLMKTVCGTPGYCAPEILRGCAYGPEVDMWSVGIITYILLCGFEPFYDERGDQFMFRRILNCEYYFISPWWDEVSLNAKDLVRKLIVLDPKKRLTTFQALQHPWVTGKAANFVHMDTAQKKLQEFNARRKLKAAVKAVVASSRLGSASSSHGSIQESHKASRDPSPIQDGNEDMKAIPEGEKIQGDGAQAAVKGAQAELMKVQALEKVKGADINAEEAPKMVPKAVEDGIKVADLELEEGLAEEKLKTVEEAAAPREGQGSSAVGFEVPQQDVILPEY
Briefly: Inhibition of human CAMK4 at 500 nM by HotSpot assay relative to control.

The target in assay [4] is Vascular endothelial growth factor receptor 3 (Homo sapiens) (UniProt P35916). The assay is described as follows: Inhibition of human FLT4 at 500 nM by HotSpot assay relative to control.
Assay [5] concerns the target Casein kinase II subunit alpha' (Homo sapiens) (UniProt P19784). Briefly: Inhibition of human CK2a2 at 500 nM by HotSpot assay relative to control.
Assay [6] deals with Vascular endothelial growth factor receptor 2 (Homo sapiens) (UniProt P35968). Briefly: Inhibition of human KDR at 500 nM by HotSpot assay relative to control.
Assay [7] concerns the target Serine/threonine-protein kinase PAK 2 (Homo sapiens) (UniProt Q13177). Briefly: Inhibition of human PAK2 at 500 nM by HotSpot assay relative to control.
The target of assay [8] is Ribosomal protein S6 kinase alpha-3 (Homo sapiens) (UniProt P51812). Briefly: Inhibition of human RSK2 at 500 nM by HotSpot assay relative to control.
For assay [9], the target named is T3, Ephrin type-B receptor 1 (Homo sapiens) (UniProt P54762).
T3 sequence (whole entry): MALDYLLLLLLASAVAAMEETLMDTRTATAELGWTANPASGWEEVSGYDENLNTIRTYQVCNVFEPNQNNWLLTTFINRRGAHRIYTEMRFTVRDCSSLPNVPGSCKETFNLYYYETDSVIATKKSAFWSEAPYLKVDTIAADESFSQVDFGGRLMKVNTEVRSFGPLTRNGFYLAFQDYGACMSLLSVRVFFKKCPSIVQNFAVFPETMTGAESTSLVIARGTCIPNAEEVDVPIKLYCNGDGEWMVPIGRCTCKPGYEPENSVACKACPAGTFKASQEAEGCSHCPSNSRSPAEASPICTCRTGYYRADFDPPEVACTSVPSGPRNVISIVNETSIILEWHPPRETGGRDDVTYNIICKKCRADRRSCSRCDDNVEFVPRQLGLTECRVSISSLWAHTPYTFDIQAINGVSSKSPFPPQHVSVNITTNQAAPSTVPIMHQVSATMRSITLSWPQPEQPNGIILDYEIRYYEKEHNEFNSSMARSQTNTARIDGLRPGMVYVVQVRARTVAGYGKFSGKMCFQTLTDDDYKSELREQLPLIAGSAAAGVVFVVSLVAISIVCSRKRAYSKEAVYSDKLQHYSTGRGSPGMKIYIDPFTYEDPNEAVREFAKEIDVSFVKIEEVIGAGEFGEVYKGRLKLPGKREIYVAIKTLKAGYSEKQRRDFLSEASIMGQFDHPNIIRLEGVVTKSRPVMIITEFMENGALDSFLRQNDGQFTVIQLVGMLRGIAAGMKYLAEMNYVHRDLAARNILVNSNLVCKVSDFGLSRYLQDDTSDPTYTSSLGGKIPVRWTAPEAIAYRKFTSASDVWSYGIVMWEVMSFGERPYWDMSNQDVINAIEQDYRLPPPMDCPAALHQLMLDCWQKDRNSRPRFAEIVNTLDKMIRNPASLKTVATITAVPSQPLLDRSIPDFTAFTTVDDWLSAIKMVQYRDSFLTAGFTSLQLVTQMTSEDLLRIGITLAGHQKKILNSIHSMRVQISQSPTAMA
Briefly: Inhibition of human EPHB1 at 500 nM by HotSpot assay relative to control.

In assay [10] the target is Protein kinase C alpha type (Homo sapiens) (UniProt P17252). The assay is described as follows: Inhibition of human PKCa at 500 nM by HotSpot assay relative to control.
The target of assay [11] is T4, Serine/threonine-protein kinase 4 (Homo sapiens) (UniProt Q13043).
T4 sequence (whole entry): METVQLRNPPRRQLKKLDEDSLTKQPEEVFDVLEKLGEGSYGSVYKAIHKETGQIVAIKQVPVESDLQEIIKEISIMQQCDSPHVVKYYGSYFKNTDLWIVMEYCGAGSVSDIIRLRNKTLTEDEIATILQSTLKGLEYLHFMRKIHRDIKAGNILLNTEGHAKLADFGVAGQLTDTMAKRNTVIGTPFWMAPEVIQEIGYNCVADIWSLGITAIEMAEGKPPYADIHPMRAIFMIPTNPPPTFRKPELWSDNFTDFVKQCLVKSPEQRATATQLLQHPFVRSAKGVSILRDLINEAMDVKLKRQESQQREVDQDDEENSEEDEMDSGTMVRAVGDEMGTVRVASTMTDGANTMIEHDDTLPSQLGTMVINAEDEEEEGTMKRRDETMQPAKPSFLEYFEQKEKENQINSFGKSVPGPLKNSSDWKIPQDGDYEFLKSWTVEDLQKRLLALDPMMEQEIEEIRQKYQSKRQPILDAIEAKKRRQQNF
Briefly: Inhibition of human STK4 at 500 nM by HotSpot assay relative to control.

What is called inhibition is the change of the read-out against control, counted positive when it falls.

Ribosomal protein S6 kinase alpha-3 (Homo sapiens), sequence (P51812 whole entry): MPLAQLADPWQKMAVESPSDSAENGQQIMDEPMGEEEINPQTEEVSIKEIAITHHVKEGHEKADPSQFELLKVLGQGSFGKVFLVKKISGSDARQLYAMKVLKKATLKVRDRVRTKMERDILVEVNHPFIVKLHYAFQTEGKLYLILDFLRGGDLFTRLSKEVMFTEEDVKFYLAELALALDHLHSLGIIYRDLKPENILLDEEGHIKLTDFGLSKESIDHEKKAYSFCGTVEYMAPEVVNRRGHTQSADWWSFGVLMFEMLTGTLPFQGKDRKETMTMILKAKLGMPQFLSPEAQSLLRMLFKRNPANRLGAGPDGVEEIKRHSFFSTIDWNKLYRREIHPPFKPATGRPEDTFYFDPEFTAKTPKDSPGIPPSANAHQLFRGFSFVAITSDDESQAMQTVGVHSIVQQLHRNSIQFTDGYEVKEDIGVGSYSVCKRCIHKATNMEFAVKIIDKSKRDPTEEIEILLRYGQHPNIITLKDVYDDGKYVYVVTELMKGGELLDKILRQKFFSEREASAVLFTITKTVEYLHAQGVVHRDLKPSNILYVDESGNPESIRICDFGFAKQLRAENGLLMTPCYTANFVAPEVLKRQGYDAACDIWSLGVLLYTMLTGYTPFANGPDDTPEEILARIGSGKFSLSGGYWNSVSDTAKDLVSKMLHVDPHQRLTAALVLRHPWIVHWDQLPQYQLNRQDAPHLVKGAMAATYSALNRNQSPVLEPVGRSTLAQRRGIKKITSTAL
Vascular endothelial growth factor receptor 3 (Homo sapiens), sequence (P35916 whole entry): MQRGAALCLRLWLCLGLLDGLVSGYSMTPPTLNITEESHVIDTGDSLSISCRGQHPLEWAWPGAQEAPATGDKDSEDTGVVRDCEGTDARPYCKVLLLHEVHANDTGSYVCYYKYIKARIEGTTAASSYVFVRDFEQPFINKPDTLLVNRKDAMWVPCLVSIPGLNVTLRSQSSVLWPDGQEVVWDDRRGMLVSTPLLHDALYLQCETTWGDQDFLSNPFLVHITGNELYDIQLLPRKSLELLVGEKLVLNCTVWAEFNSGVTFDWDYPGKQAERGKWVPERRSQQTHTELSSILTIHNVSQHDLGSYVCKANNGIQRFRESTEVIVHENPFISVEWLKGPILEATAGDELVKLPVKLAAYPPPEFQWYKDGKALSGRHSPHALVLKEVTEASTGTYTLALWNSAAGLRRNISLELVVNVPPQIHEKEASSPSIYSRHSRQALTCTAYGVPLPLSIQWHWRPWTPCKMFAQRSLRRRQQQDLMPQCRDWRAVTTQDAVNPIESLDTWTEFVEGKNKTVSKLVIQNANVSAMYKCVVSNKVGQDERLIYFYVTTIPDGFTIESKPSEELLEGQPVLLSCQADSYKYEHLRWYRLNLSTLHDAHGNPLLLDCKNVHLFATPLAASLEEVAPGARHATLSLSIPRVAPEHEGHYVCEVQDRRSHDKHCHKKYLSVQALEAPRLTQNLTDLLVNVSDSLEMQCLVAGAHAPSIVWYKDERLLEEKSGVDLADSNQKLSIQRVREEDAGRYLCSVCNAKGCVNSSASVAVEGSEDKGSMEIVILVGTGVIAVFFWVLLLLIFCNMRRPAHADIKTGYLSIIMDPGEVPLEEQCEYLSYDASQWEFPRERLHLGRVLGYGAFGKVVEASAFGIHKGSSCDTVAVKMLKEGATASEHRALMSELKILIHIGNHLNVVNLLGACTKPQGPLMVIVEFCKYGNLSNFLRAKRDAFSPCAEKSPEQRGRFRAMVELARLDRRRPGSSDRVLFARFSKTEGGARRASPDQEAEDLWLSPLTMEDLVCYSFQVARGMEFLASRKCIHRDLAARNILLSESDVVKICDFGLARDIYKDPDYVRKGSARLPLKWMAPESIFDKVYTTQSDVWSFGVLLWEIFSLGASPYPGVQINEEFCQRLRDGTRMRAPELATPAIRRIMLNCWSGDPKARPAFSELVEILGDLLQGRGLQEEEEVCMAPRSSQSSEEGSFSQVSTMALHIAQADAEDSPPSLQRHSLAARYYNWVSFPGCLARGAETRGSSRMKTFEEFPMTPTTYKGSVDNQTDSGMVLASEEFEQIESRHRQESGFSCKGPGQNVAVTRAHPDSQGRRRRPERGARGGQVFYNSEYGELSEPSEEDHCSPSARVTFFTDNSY
Vascular endothelial growth factor receptor 1 (Homo sapiens), sequence (P17948 whole entry): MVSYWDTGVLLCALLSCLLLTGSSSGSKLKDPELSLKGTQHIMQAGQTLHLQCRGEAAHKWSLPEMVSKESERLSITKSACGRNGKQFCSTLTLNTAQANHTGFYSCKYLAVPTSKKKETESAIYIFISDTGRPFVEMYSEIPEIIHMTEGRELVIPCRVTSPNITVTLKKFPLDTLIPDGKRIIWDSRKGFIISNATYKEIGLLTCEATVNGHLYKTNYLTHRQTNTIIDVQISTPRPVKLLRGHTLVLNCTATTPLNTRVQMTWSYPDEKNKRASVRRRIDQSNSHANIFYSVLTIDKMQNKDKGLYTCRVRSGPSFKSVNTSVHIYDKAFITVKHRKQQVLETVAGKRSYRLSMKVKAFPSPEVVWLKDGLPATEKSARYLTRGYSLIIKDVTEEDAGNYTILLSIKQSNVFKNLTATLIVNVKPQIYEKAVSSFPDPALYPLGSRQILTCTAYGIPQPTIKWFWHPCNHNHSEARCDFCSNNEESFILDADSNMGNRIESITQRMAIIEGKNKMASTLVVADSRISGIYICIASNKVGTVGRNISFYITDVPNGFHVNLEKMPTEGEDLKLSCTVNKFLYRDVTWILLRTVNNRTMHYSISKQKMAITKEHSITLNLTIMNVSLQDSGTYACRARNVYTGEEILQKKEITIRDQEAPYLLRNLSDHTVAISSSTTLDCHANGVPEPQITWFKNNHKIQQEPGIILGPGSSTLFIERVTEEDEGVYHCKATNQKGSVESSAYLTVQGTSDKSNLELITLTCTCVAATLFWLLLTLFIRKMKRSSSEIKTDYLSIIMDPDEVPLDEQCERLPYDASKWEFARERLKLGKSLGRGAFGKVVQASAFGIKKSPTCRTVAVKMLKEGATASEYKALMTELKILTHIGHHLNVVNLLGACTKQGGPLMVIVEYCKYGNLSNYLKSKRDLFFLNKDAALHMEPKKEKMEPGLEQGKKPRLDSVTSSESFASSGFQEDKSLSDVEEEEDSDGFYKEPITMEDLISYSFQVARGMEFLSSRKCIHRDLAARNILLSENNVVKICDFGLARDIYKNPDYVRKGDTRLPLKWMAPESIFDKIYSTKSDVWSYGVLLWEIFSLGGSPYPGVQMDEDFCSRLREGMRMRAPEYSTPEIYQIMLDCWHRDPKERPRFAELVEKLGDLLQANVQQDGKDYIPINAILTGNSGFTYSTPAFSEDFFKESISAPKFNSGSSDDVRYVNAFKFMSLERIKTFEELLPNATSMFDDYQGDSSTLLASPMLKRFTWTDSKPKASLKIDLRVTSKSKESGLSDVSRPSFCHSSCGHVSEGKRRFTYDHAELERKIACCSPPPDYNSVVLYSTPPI
Casein kinase II subunit alpha' (Homo sapiens), sequence (P19784 whole entry, looked up): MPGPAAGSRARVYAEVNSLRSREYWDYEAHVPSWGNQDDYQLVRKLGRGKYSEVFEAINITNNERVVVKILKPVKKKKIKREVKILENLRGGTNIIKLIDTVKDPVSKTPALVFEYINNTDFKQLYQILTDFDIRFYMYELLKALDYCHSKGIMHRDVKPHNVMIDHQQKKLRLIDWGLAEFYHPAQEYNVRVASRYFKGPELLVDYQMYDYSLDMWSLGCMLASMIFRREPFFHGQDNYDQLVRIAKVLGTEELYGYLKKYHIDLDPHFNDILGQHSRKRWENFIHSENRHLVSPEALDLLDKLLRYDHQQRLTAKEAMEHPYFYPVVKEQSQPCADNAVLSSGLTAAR
Serine/threonine-protein kinase PAK 2 (Homo sapiens), sequence (Q13177 whole entry): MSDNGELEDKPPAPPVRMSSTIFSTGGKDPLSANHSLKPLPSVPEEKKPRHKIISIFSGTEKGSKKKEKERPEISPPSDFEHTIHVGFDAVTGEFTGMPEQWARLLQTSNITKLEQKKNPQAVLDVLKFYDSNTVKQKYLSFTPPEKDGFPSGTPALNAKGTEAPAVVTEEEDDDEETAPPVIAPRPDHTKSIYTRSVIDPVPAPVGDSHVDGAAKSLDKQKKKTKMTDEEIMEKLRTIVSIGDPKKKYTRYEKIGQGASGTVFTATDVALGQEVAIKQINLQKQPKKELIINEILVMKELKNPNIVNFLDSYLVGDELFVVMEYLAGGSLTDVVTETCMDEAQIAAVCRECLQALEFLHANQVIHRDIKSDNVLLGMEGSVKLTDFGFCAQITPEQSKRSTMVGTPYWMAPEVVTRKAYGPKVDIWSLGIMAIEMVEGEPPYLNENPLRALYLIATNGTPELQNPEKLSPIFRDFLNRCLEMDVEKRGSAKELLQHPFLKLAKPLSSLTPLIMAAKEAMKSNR

In the case of `Oc1n[nH]c2nnc(-c3c(-c4ccccc4)nn4ccccc34)cc12`, the inhibition in [1] is 0.38%; in assay [2] it was 0.57%; in assay [3], 0.79%; in assay [4], 0.44%; in assay [5], 6.97%; in assay [6], -5.2%. Besides, the inhibition in assay [7] was -1.47%; in assay [8], -2.36%; in assay [9] it was 2.52%; in assay [10], 14.1%; in assay [11], -0.48%.

Turning to `Nc1n[nH]c2nnc(-c3c(-c4ccccc4)nn4ccccc34)cc12`, the inhibition is 3.34% in [1]; 7.83% in assay [2]; 5.76% in assay [3]; 10.1% in [4]; 6.59% in [5]; -1.19% in [6]. For the same molecule, the inhibition in assay [7] is -0.21%; in assay [8] it was 1.29%; in assay [9], 1.38%; in assay [10], 12.8%; in assay [11], 0.86%.
